# From article PMC6399351, “Cationic Intrinsically Disordered Antimicrobial Peptides (CIDAMPs) Represent a New Paradigm of Innate Defense with a Potential for Novel Anti-Infectives” (Scientific Reports, 2019)
# Several values for one entry are separate records, joined by “and”; a condition that tells them apart may be missing. Identical values can stand only once. Like-named read-outs stand apart in the source and are kept apart here. Peptide text beside a SMILES is read from it. * marks the point of attachment. Palmitoyl = CCCCCCCCCCCCCCCC(=O)*
# How the values were obtained:
# [1] = test system: Moraxella osloensis RV A2/2001; details: CFU assay, 10 mM NaP, pH 7.3, 1% TSB
# [2] = test system: E. coli ATCC 25922; test: CO-ADD MIC, broth microdilution (CLSI); type: cell-based, Escherichia coli; details: Mueller–Hinton broth, 5 × 10^5 CFU/mL, 18 h 37 °C, by CO-ADD
# From the text: They were defined as the lowest peptide
# Further details of the screening
# [3] = test system: Staphylococcus aureus ATCC 43300; details: MRSA; CLSI, Mueller–Hinton broth, 5 × 10^5 CFU/mL, 18 h 37 °C, by CO-ADD
# [4] = test system: Streptococcus pyogenes ATCC 12344; test: CFU assay of antimicrobial activity; type: cell-based; details: 10 mM NaP, pH 7.3, 1% TSB
# Description: (§1) All purified peptides and recombinant proteins were applied using a colony forming unit (CFU) assay in different media. Bacteria were grown to early log-phase in BHI, washed either with 10 mM Na-P, pH 7.4/1% TSB or pH 5.5/1% TSB, or pH 5.5 without TSB or BHI, and adjusted to a concentration of 10^4–10^5 colony forming units (CFU)/ml. For cell number control, 100 µl aliquots were diluted 1:10, 1:100 and 1:1000 and plated in duplicates on BHI agar plates. To 100 µl aliquots of the bacteria, suspended in the respective medium (10 mM Na-P buffer pH 7,0–7,4/ 1% (w/v) TSB; […]; 10 mM Na-P buffer pH 7,0–7,4/ 1% (w/v) TSB pH 7,0–7,4/ 0,25% (w/v) glucose; 10 mM Na-P buffer pH 5,5/ 0,25% (w/v) glucose, respectively), 10 µl of a solution of the peptide or protein (two-fold dilutions, from 300 µg/ml or 150 µg/ml down to 19 ng/ml), dissolved in 0.01% (v/v) acetic acid, were added.
# (§2) Then bacteria were incubated for 2 h at ambient temperature, if not otherwise stated. 10 µl of 0.01% (v/v) acetic acid, added to 100 µl aliquots of the bacteria in the respective medium, served as negative control. From each test, 1:10 and 1:100 dilutions were generated and plated as duplicates of 100 µl aliquots on BHI agar plates. After 16 h incubation at 37 °C, CFU were counted using a colony counter (Bio Kobe, Japan) and expressed as mean of the duplicate estimation to achieve a complete dose-response curve. All experiments were performed at serial dilutions in a concentration range of 100 µg/mL −25 ng/mL for recombinant HRNR fragments and 300 or 150 µg/mL–19 ng/mL for synthetic peptides.
# [5] = test system: Streptococcus pneumoniae ATCC 33400; test: CFU assay of antimicrobial activity; type: cell-based; details: 10 mM NaP, pH 7.3, 1% TSB
# Description: as §1, §2
# [6] = test system: Prevotella oralis ATCC 33321; test: CFU assay of antimicrobial activity; type: cell-based; details: 10 mM NaP, pH 7.3, 1% TSB
# Description: All purified peptides and recombinant proteins were applied using a colony forming unit (CFU) assay in different media. Bacteria were grown to early log-phase in BHI, washed either with 10 mM Na-P, pH 7.4/1% TSB or pH 5.5/1% TSB, or pH 5.5 without TSB or BHI, and adjusted to a concentration of 10^4–10^5 colony forming units (CFU)/ml. For cell number control, 100 µl aliquots were diluted 1:10, 1:100 and 1:1000 and plated in duplicates on BHI agar plates. To 100 µl aliquots of the bacteria, suspended in the respective medium (10 mM Na-P buffer pH 7,0–7,4/ 1% (w/v) TSB; 10 mM Na-P buffer pH 5,5/ 1% (w/v) TSB; 10 mM Na-P buffer pH 7,0–7,4/ 1% (w/v) TSB pH 7,0–7,4/ 0,25% (w/v) glucose; […], respectively), 10 µl of a solution of the peptide or protein (two-fold dilutions, from 300 µg/ml or 150 µg/ml down to 19 ng/ml), dissolved in 0.01% (v/v) acetic acid, were added.
# as §2
# [7] = test system: S. aureus ATCC 6538; details: CFU assay
# [8] = test system: Clostridium perfringens ATCC 13124; details: CFU assay, 10 mM NaP
# [9] = test system: E. coli ATCC 11775; test: CFU assay of antimicrobial activity; type: cell-based, Escherichia coli; details: 10 mM NaP
# In short: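 Early log-phase bacteria grown in BHI were exposed at 10^4–10^5 CFU/ml for 2 h at ambient temperature. Two-fold serial dilutions spanned 300 or 150 µg/mL–19 ng/mL (synthetic peptides) or 100 µg/mL–25 ng/mL (recombinant HRNR fragments), and colonies were counted after 16 h at 37 °C.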
# [10] = test system: Klebsiella pneumoniae ATCC 13883; details: CFU assay, 10 mM NaP
# [11] = test system: Peptostreptococcus magnus ATCC 15794; test: CFU assay of antimicrobial activity; type: cell-based, Peptostreptococcus magnus (now Finegoldia magna); details: 10 mM NaP, pH 7.3, 1% TSB
# Description: All purified peptides and recombinant proteins were applied using a colony forming unit (CFU) assay in different media. Bacteria were grown to early log-phase in BHI, washed either with 10 mM Na-P, pH 7.4/1% TSB or pH 5.5/1% TSB, or pH 5.5 without TSB or BHI, and adjusted to a concentration of 10^4–10^5 colony forming units (CFU)/ml. For cell number control, 100 µl aliquots were diluted 1:10, 1:100 and 1:1000 and plated in duplicates on BHI agar plates. To 100 µl aliquots of the bacteria, suspended in the respective medium (10 mM Na-P buffer pH 7,0–7,4/ 1% (w/v) TSB; 10 mM Na-P buffer pH 5,5/ 1% (w/v) TSB; 10 mM Na-P buffer pH 7,0–7,4/ 1% (w/v) TSB pH 7,0–7,4/ 0,25% (w/v) glucose; 10 mM Na-P buffer pH 5,5/ 0,25% (w/v) glucose, respectively), 10 µl of a solution of the peptide or protein (two-fold dilutions, from 300 µg/ml or 150 µg/ml down to 19 ng/ml), dissolved in 0.01% (v/v) acetic acid, were added.
# Then bacteria were incubated for 2 h at ambient temperature, if not otherwise stated. 10 µl of 0.01% (v/v) acetic acid, added to 100 µl aliquots of the bacteria in the respective medium, served as negative control. […] After 16 h incubation at 37 °C, CFU were counted using a colony counter (Bio Kobe, Japan) and expressed as mean of the duplicate estimation to achieve a complete dose-response curve. […]
# [12] = test system: P. aeruginosa ATCC 10145; details: CFU assay, 10 mM NaP
structure (smiles),measurement,setting,value
CCCCCCCCCCCCCCCC(=O)NCC(=O)N[C@@H](CCCNC(=N)N)C(=O)N[C@@H](CCCNC(=N)N)C(=O)NCC(=O)NCC(=O)N[C@@H](CCCNC(=N)N)C(=O)NCC(=O)NCC(=O)N[C@@H](CCCNC(=N)N)C(=O)NCC(=O)N[C@@H](CCCNC(=N)N)C(=O)NCC(=O)N[C@@H](CCCNC(=N)N)C(=O)O [Pal-GR13] (Palmitoyl-GRRGGRGGRGRGR-OH),LD90,[1],0.59 µg/mL
same,Minimal inhibitory concentration (MIC),[2],4 µg/mL
same,Minimal inhibitory concentration (MIC),[3],0.25 µg/mL
same,LD90,[4],0.15 µg/mL
same,LD90,[5],2.35 µg/mL
same,LD90,[6],9.38 µg/mL
same,LD90,"[7]; 10 mM NaP, pH 5.5, 0.25% glucose",0.075 µg/mL and 0.15 µg/mL
same,LD90,"[7]; 10 mM NaP, pH 5.5, 1% TSB",0.3 µg/mL
same,LD90,"[7]; 10 mM NaP, pH 7.3, 1% TSB",0.3 µg/mL
same,LD90,[7]; value in molar units,47 nM
same,LD90,"[8]; pH 5.5, 0.25% glucose",37.5 µg/mL
same,LD90,"[8]; pH 7.3, 0.25% glucose",4.7 µg/mL
same,LD90,"[8]; pH 7.3, 1% TSB",18.75 µg/mL
same,LD90,"[9]; pH 5.5, 0.25% glucose",0.15 µg/mL
same,LD90,"[9]; pH 7.3, 1% TSB",1.18 µg/mL
same,LD90,"[10]; pH 5.5, 0.25% glucose",0.15 µg/mL
same,LD90,"[10]; pH 7.3, 1% TSB",1.18 µg/mL
same,LD90,[11],4.7 µg/mL
same,LD90,"[12]; pH 5.5, 0.25% glucose",0.075 µg/mL
same,LD90,"[12]; pH 7.3, 1% TSB",0.3 µg/mL
